Laboratory results from patent US12504431B2, “Biomarkers for a therapy comprising a sorafenib compound” (Eisai R&D Management Co., Ltd., priority 2018, dated 2025).
Where a name gives a salt, the structure may show the parent alone.

Assays:
[1] = tested on: LI0334 HCC PDX tumor; details: PDX tumor highly expressing FGF21; reported in Matsuki et al., AACR 2017; cited from earlier work
[2] = tested on: Mock-transfected HCC PLC/PRF/5 cells (Mock-TF); test: Antitumor activity in Mock-TF tumor xenograft model in mice; type: in vivo, female nude mice; details: LEN 10 mg/kg and 30 mg/kg, SOR 30 mg/kg, orally once daily; FIG. 1
Excerpt: (§1) Methods: Human FGF21 and Mock-transfected HCC PLC/PRF/5 cells (FGF21-TF and Mock-TF, respectively) were established by using piggy-back system. To evaluate antitumor activity against these tumors, 4.2×10^6 cells of FGF21-TF or 4.3×10^6 cells of Mock-TF were subcutaneously injected into female nude mice (Charles River, Japan) with matrigel (BD Biosciences). When tumor volumes reached approximately 200-300 mm3, mice were divided into each group according to their tumor volumes and either lenvatinib mesylate (abbreviated as LEN) (10 mg/kg and 30 mg/kg) or Sorafenib tosylate (abbreviated as SOR) (30 mg/kg) was orally administered once daily. Follow-up analysis of a HCC patient-derived xenograft (PDX)-derived tumor (LI0334 HCC PDX tumor model treated with 3 mM HCl (vehicle for lenvatinib)) assessed FGF21 expression levels by immunohistochemistry. Three μm thick sections of paraffin-embedded tumor samples were de-paraffinized and hydrated. Antigen retrieval was performed by incubation of the samples in Dako REAL Target Retrieval sol. (pH6.0) (Dako) for 30 minutes. Endogenous hydrogen peroxidase activity was blocked by incubating the slides for 10 min with 3% hydrogen peroxide. The slides were incubated overnight with primary antibody, human rabbit anti-human FGF21 (ab64857. Abcam) at 1:100 in 1% BSA/PBS at 4° C. […]

[3] = tested on: Human FGF21-transfected HCC PLC/PRF/5 cells (FGF21-TF); test: Antitumor activity in FGF21-TF tumor xenograft model in mice; type: in vivo, female nude mice; details: LEN 10 mg/kg and 30 mg/kg, SOR 30 mg/kg, orally once daily; FIG. 1
Excerpt: as §1

[4] = Relative body weight changes in mice with FGF21-TF and Mock-TF tumors; type: in vivo, female nude mice; details: LEN 10 mg/kg and 30 mg/kg, SOR 30 mg/kg, orally once daily; FIG. 2
Excerpt: as §1

[5] = tested on: unresectable HCC; test: Phase 3 study E7080-G000-304: OS and PFS by baseline serum FGF21 level; type: in vivo, human; details: for MST for PFS, high FGF21 group / MST for PFS, low FGF21 group / HR for PFS, high vs low FGF21 group: PFS by RECIST 1.1 (IIR); for MST for PFS, high FGF21 group / median OS (MST), high FGF21 group: baseline serum FGF21 at or above third quartile cutoff (688 ng/L); for MST for PFS, low FGF21 group / median OS (MST), low FGF21 group: baseline serum FGF21 below third quartile cutoff (688 ng/L); for HR for PFS, high vs low FGF21 group / HR for OS, high vs low FGF21 group: univariate Cox regression, third quartile cutoff (688 ng/L); for difference of PFS (RECIST 1.1) between high and low baseline FGF21 groups: third quantile cutoff point
Description: E7080-G000-304 was a multicenter, randomized, open-label, noninferiority Phase 3 study to compare the efficacy and safety of lenvatinib versus sorafenib as a first-line systemic treatment in subjects with unresectable HCC. Subjects were randomly assigned in a 1:1 ratio to treatment with either lenvatinib 12 mg (baseline body weight [BW]≥60 kg) or 8 mg (baseline BW<60 kg) given once daily (QD) orally or sorafenib 400 mg given twice daily (BID) orally. Subjects were stratified by region, presence or absence of macroscopic portal vein invasion (MPVI) or extrahepatic spread (EHS) or both, Eastern Cooperative Oncology Group Performance Status (ECOG PS) 0 or 1, and BW (<60 kg or ≥60 kg). A total of 951 subjects (476 lenvatinib; 475 sorafenib) were enrolled and treated. Lenvatinib and sorafenib were self-administered by the subjects orally, at the same time each day (consistently either with or without food) in continuous 28-day cycles. Subjects received study treatment until disease progression, development of unacceptable toxicity, subject request, or withdrawal of consent.
Of the 954 subjects enrolled in the clinical study and assigned to receive lenvatinib or sorafenib, 407 subjects (42.7% of all ITT subjects, lenvatinib arm, n=279 and sorafenib arm, n=128) were included in blood serum biomarker assay.
Serum samples were collected at Day 1 of Cycle1 (pre-treatment). The serum levels of FGF21 at Day 1 of Cycle 1 (baseline level) in Samples from 279 subjects in the lenvatinib arm and 128 subjects in the sorafenib arm (total 407 subjects) were determined by enzyme-linked immunosorbent assay (ELISA). All biomarker data were transferred to study data tabulation model (SDTM) in accordance with the data transfer specification developed separately. Correlation between the serum baseline level of FGF21 and clinical outcome, such as progression free survival (PFS) was assessed. PFS was defined as the time from the date of randomization to the date of first documentation of disease progression or death.
All statistical analyses were performed by the Clinical Data Science department at Eisai Co., Ltd. (Tokyo, Japan) after the clinical study was completed and a snapshot of the database was obtained on 13 Nov. 2016. For the correlation analyses with PFS, data sets based on independent imaging review (IIR) by RECIST 1.1 were used. Statistical analyses were performed using SAS version 9.3.
For each baseline level of blood serum biomarker, correlation analysis with survival outcome measures (OS and PFS) was performed using univariate Cox regression for the lenvatinib arm and the sorafenib arm separately.
Subjects were divided into two high-low groups based on the baseline level of each blood serum biomarker. The cutoff point was third quartile. Association between the groups and survival outcome measures (OS and PFS) was explored using univariate Cox regression and the Log-rank test with the selected cutoff points.

SMILES | inhibition of the LI0334 HCC PDX tumor model [1] | antitumor activity (tumor volume changes) in the Mock-TF model [2] | antitumor activity (tumor volume changes) in the FGF21-TF model [3] | body weight losses associated with tumor presence compared to non-treatment [4] | MST for PFS, high FGF21 group [5] | MST for PFS, low FGF21 group [5] | HR for PFS, high vs low FGF21 group [5] | median OS (MST), high FGF21 group [5] [months] | median OS (MST), low FGF21 group [5] [months] | difference of PFS (RECIST 1.1) between high and low baseline FGF21 groups [5] | HR for OS, high vs low FGF21 group [5]
COc1cc2nccc(Oc3ccc(NC(=O)NC4CC4)c(Cl)c3)c2cc1C(N)=O [LEN, lenvatinib mesylate] | inhibited by LEN | showed antitumor activity | showed activity | Neither treatment exacerbated body weight losses |  |  |  |  |  |  | 
COc1cc2nccc(Oc3ccc(NC(=O)NC4CC4)c(Cl)c3)c2cc1C(N)=O [Lenvatinib, 4-(3-chloro-4-(cyclopropylaminocarbonyl)aminophenoxy)-7-methoxy-6-quinolinecarboxamide] |  |  |  |  | 7.5 | 8.0 | 1.184 | 10.9 | 18.0 | no clear difference of PFS | 1.745
CNC(=O)c1cc(Oc2ccc(NC(=O)Nc3ccc(Cl)c(C(F)(F)F)c3)cc2)ccn1 [SOR, Sorafenib tosylate] |  | showed antitumor activity | only LEN showed activity | Neither treatment exacerbated body weight losses |  |  |  |  |  |  | 
CNC(=O)c1cc(Oc2ccc(NC(=O)Nc3ccc(Cl)c(C(F)(F)F)c3)cc2)ccn1 [Sorafenib, 4-[4-[[4-chloro-3-(trifluoromethyl)phenyl]carbamoylamino]phenoxy]-N-methylpyridine-2-carboxamide] |  |  |  |  | 2.4 | 5.5 | 1.783 | 6.8 | 17.8 | short median PFS (RECIST 1.1) for high group than that of low group | 3.341
